Experimental data: patent publication US8796219B2, “Target-activated cell/tissue-penetrating peptide for delivery of impermeable compounds and use thereof” (Nano Intelligent Biomedical Engineering Corporation Co. Ltd, priority 2009, dated 2014)
Where no end group is shown, it is not given here.

Tests used:
normal cell line (ATCC) = assay: Cell-penetrating ability in normal cell line (FACS and confocal laser scanning microscopy of FITC fluorescence); format: cell-based; settings: FITC label
Method: (§1) In order to examine the cell-penetrating ability of the target-activated cell/tissue-penetrating peptide prepared in Example 1, the C-terminal region of the prepared peptide was labeled with the fluorescence marker FITC, and the fluorescence-labeled peptide was inoculated into each of a normal cell line (ATCC) and a tumor cell line (CT-26, KCLB (Korea cell line bank) 80009).
(§2) 1 hour after the inoculation, the fluorescence intensities of the cell lines were measured using FACS, and the results of the measurement are shown in FIG. 2. […] In FIG. 2, “(a)” indicates the fluorescence intensity of the normal cell line, and “(b)” indicates the fluorescence intensity of the tumor cell line.
(§3) Also, whether the peptide penetrated into the cells was observed by a confocal laser scanning microscope. […] In FIG. 3, “(a)” indicates the cell penetration of the peptide in the tumor cell line group, and “(b)” indicates the cell penetration of the peptide in the normal cell line group.
(§4) The target-activated cell/tissue-penetrating peptide-anticancer protein conjugate prepared in Example 2 above was inoculated into each of a normal cell line (ATCC) and a tumor cell line (CT-26, KCLB (Korea cell line bank) 80009). 1 hour after the inoculation, the penetration of the peptide-gelonin conjugate into the cells was observed by a confocal laser scanning microscope (FIG. 4).

tumor cell line (CT-26) = assay: Cell-penetrating ability in tumor cell line (FACS and confocal laser scanning microscopy of FITC fluorescence); format: cell-based, mouse
Method: as §1, §2, §3, §4

Row | Substance | fluorescence intensity of the normal cells (FACS) (normal cell line (ATCC)) | fluorescence intensity of the tumor cells (FACS) (tumor cell line (CT-26); CT-26, 1 hour after inoculation, FITC label) | penetration into the cells observed by confocal laser scanning microscope, tumor cell line (tumor cell line (CT-26); CT-26, FITC label, nuclei stained with Hoechst 33342) | penetration into the cells observed by confocal laser scanning microscope, normal cell line (normal cell line (ATCC); nuclei stained with Hoechst 33342)
1 | NH2-EEEEEEEPLGLAG-VSRRRRRRGGRRRR-C-COONH2 (H-EEEEEEEPLGLAGVSRRRRRRGGRRRRC-NH2) [masking domain (EEEEEEE), MMP-cleavable spacer (PLGLAG) and LMWP as protein transduction domain] | the same as that before application of the penetrating peptide | – | – | –
2 | fluorescence-labeled peptide: peptide of Example 1 with the C-terminal region labeled with the fluorescence marker FITC (H-EEEEEEEPLGLAGVSRRRRRRGGRRRRC; also: FITC label on C-terminal region) | – | increase | observed | not observed
